Assay results as given in ChEMBL document CHEMBL4715855, “N-phenyl ureidobenzenesulfonates, a novel class of promising human dihydroorotate dehydrogenase inhibitors” (Bioorg Med Chem, 2020).

Experiments:
Format in all cases: functional, cell-based
SF-268 = test: Antiproliferative activity against human SF-268 cells assessed as cell growth inhibition measured after 48 hrs by sulforhodamine B assay; details: SF-268, 48 h
MCF7 = test: Antiproliferative activity against human MCF7 cells assessed as cell growth inhibition measured after 48 hrs by SRB assay; details: MCF7, 48 h
UACC-62 = test: Antiproliferative activity against human UACC-62 cells assessed as cell growth inhibition measured after 48 hrs by sulforhodamine B assay; details: UACC-62, 48 h
[1] = test system: Panel NCI-60 (60 carcinoma cell lines); test: Antiproliferative activity against human Panel NCI-60 (60 carcinoma cell lines) assessed as cell growth inhibition measured after 48 hrs by SRB assay
CAKI-1 = test: Antiproliferative activity against human CAKI-1 cells assessed as cell growth inhibition measured after 48 hrs by sulforhodamine B assay; details: CAKI-1, 48 h
K562 = test: Antiproliferative activity against human K562 cells assessed as cell growth inhibition incubated for 48 hrs by sulforhodamine B assay; details: K562, 48 h
NCI-H226 = test: Antiproliferative activity against human NCI-H226 cells assessed as cell growth inhibition measured after 48 hrs by sulforhodamine B assay; details: NCI-H226, 48 h
MDA-MB-231 = test: Antiproliferative activity against human MDA-MB-231/ATCC cells assessed as cell growth inhibition measured after 48 hrs by sulforhodamine B assay; details: MDA-MB-231, 48 h
HT-29 [2] = test: Antiproliferative activity against human HT-29 cells assessed as cell growth inhibition measured after 48 hrs by SRB assay; details: HT-29, 48 h
HT-29 [3] = test: Antiproliferative activity against human HT-29 cells assessed as cell growth inhibition measured after 48 hrs in presence of uridine by SRB assay; details: HT-29, 48 h
HOP-92 = test: Antiproliferative activity against human HOP-92 cells assessed as cell growth inhibition measured after 48 hrs by sulforhodamine B assay; details: HOP-92, 48 h
M21 = test: Antiproliferative activity against human M21 cells assessed as cell growth inhibition measured after 48 hrs in presence of uridine by SRB assay; details: M21, 48 h
SNB-19 = test: Antiproliferative activity against human SNB-19 cells assessed as cell growth inhibition measured after 48 hrs by sulforhodamine B assay; details: SNB-19, 48 h
HT-1080 = test: Antiproliferative activity against human HT-1080 cells assessed as cell growth inhibition measured after 48 hrs in presence of uridine by SRB assay; details: HT-1080, 48 h
NCI-H23 = test: Antiproliferative activity against human NCI-H23 cells assessed as cell growth inhibition measured after 48 hrs by sulforhodamine B assay; details: NCI-H23, 48 h
[4] = test system: Panel leukemia (Carcinoma cell lines); test: Antiproliferative activity against human Panel leukemia (Carcinoma cell lines) assessed as cell growth inhibition measured after 48 hrs by SRB assay
ACHN = test: Antiproliferative activity against human ACHN cells assessed as cell growth inhibition measured after 48 hrs by sulforhodamine B assay
OVCAR-3 = test: Antiproliferative activity against human OVCAR-3 cells assessed as cell growth inhibition measured after 48 hrs by sulforhodamine B assay; details: OVCAR-3, 48 h
T47D = test: Antiproliferative activity against human T47D cells assessed as cell growth inhibition measured after 48 hrs by sulforhodamine B assay
KM12 = test: Antiproliferative activity against human KM12 cells assessed as cell growth inhibition measured after 48 hrs by sulforhodamine B assay; details: KM12, 48 h
RXF 393 = test: Antiproliferative activity against human RXF 393 cells assessed as cell growth inhibition measured after 48 hrs by sulforhodamine B assay; details: RXF 393, 48 h
SNB-75 = test: Antiproliferative activity against human SNB-75 cells assessed as cell growth inhibition measured after 48 hrs by sulforhodamine B assay; details: SNB-75, 48 h
HCT-116 = test: Antiproliferative activity against human HCT-116 cells assessed as cell growth inhibition measured after 48 hrs by sulforhodamine B assay; details: HCT-116, 48 h
SW-620 = test: Antiproliferative activity against human SW-620 cells assessed as cell growth inhibition measured after 48 hrs by sulforhodamine B assay; details: SW-620, 48 h
[5] = test system: Panel colon (Carcinoma cell lines); test: Antiproliferative activity against human Panel colon (Carcinoma cell lines) assessed as cell growth inhibition measured after 48 hrs by SRB assay

SMILES	IC50 (SF-268) [µM]	IC50 (MCF7; read-out: IC50) [µM]	IC50 (MCF7; read-out: pIC50 (converted)) [µM]	IC50 (UACC-62) [µM]	IC50 (CAKI-1) [µM]	IC50 (K562) [µM]	IC50 (NCI-H226) [µM]	IC50 (MDA-MB-231) [µM]	IC50 (HT-29 [2]; read-out: IC50) [µM]	IC50 (HT-29 [2]; read-out: pIC50 (converted)) [µM]	IC50 (HT-29 [3]) [µM]	IC50 (HOP-92) [µM]	IC50 (M21) [µM]	IC50 (SNB-19) [µM]	IC50 (HT-1080) [µM]	IC50 (NCI-H23) [µM]	IC50 (ACHN) [µM]	IC50 (OVCAR-3) [µM]	IC50 (T47D) [µM]	IC50 (KM12) [µM]	other results
CCNC(=O)Nc1ccc(S(=O)(=O)Oc2ccccc2CC)cc1	2.88	5.9	3.24	2.51	0.759	0.282	9.33	11.7	0.99	1.02	27	6.61	30	3.63	7.4	12.9	1.58	6.61	16.2	1.15	IC50 [1]: 3.5 µM; IC50 [4]: 0.81 µM; IC50 (RXF 393): 12.6 µM; IC50 (SNB-75): 9.12 µM; IC50 (HCT-116): 0.575 µM; IC50 (SW-620): 2.75 µM; IC50 [5]: 1.5 µM
Cc1c(-c2ccc(-c3ccccc3F)cc2)nc2ccc(F)cc2c1C(=O)O [BREQUINAR]	0.372	5.1	0.269	0.263	0.912	0.145	19.5	3.63	0.59	0.372	24	35.5	25	1.26	17	21.4	0.151	3.72	17	0.209	IC50 (RXF 393): 11.7 µM; IC50 (SNB-75): 81.3 µM; IC50 (HCT-116): 0.0871 µM; IC50 (SW-620): 0.38 µM
